We go through 3 compounds from patent US12459908B2, “Alpha, beta unsaturated methacrylic esters with anti-inflammatory properties” (Sitryx Therapeutics Limited, priority 2020, dated 2025).

Where only a bound is given, the exact number is not on record here.

One series has as its system IL-1β. Kind of series: THP-1 AlphaLISA IL-1β cytokine inhibition assay (differentiated THP-1 cells). It is filed as cell-based. The note with it: Homo sapiens, LPS 24 hr then Nigericin 1 hour. As for the experimental part: Biological Example 1—THP-1 AlphaLISA IL-1β
Measuring Inhibitory Effects on IL-1, Cytokine Output from THP-1s
The cytokine inhibition profiles of compounds of formula (I) were determined in a differentiated THP-1 cell assay. All assays were performed in RPMI-1640 growth medium (Gibco), supplemented with 10% fetal bovine serum (FBS; Gibco), 1% penicillin-streptomycin and 1% sodium pyruvate unless specified otherwise. The IL-1p cytokine inhibition assay was run in a background of differentiated THP-1 cells as described below. All reagents described were from Sigma-Aldrich unless specified otherwise. Compounds were prepared as 10 mM DMSO stocks.
THP-1 cells were expanded as a suspension up to 80% confluence in appropriate growth medium. Cells were harvested, suspended, and treated with an appropriate concentration of phorbol 12-myristate 13-acetate (PMA) over a 72 hr period (37° C./5% CO2).
Following 72 hrs of THP-1 cell incubation, cellular medium was removed and replaced with fresh growth media containing 1% of FBS. Working concentrations of compounds were prepared separately in 10% FBS treated growth medium and pre-incubated with the cells for 30 minutes (37° C./5% CO2). Following the 30 minute compound pre-incubation, THP-1s were treated with an appropriate concentration of LPS and the cells were subsequently incubated for a 24 hr period (37° C./5% CO2). An appropriate final concentration of Nigericin was then dispensed into the THP-1 plates and incubated for 1 hour (37° C./5% CO2) before THP-1 supernatants were harvested and collected in separate polypropylene 96-well holding plates.
Reagents from an IL-1β and IL-6 commercial kit (Perkin Elmer) were prepared and run according to the manufacturer's instructions. Subsequently, fluorescence signal detection in a microplate reader was measured (EnVision® Multilabel Reader, Perkin Elmer).
Percentage inhibition was calculated per cytokine by normalising the sample data to the high and low controls used within each plate (+/−LPS respectively). Percentage inhibition was then plotted against compound concentration and the 50% inhibitory concentration (IC50) was determined from the resultant concentration-response curve.
(In Alpha technology, singlet oxygen from a donor bead excites a nearby acceptor bead.)

Series [1] concerns cryo-preserved hepatocytes. Nature of the series: Hepatocyte stability assay, human cryopreserved hepatocytes. In kind it is in vitro ADME. Conditions: for Clint: Human hepatocytes, 10 μM, 60 min, numeric values. An excerpt:
(§1) Biological Example 3—Hepatocyte Stability Assay
(§2) Defrosted cryo-preserved hepatocytes (viability >70%) were used to determine the metabolic stability of a compound via calculation of intrinsic clearance (CIint; a measure of the removal of a compound from the liver in the absence of blood flow and cell binding). Clearance data are particularly important for in vitro work as they can be used in combination with in vivo data to predict the half-life and oral bioavailability of a drug.
(§3) The metabolic stability in hepatocytes assay involves a time-dependent reaction using both positive and negative controls. The cells were pre-incubated at 37° C. and spiked with test compound (and positive control); samples taken at pre-determined time intervals were analysed to monitor the change in concentration of the initial drug compound over 60 minutes. A buffer incubation reaction (with no hepatocytes present) acted as a negative control and two cocktail solutions, containing compounds with known high and low clearance values (verapamil/7-hydroxycoumarin and propranolol/diltiazem), acted as positive controls. • 1. The assay was run with a cell concentration of 0.5×10^6 cells/mL in Leibovitz buffer. • 2. All compounds and controls were run in duplicate. • 3. Compound concentration was 10 μM. • 4. All compounds and controls were incubated with both cells and buffer to show turnover was due to hepatic metabolism. • 5. All wells on the incubation plate had 326.7 μL of either cells or buffer added. • 6. Prior to assay, cell and buffer-only incubation plates were preincubated for 10 mins at 37° C. • 7. The assay was initiated by adding compounds, 3.3 μL of 1 mM in 10% DMSO-90% Buffer; final DMSO concentration is 0.1%. • 8. Samples were taken at regular timepoints (0, 5, 10, 20, 40, 60 min) until 60 mins. • 9. Sample volume was 40 μL and was added to 160 μL of crash solvent (acetonitrile with internal standard) and stored on ice. • 10. At the end of the assay, the crash plates were centrifuged at 3500 rpm for 20 mins at 4° C. • 11. 80 μL of clear supernatant was removed and mixed with 80 μL of deionised water before being analysed by LC-MS/MS.
(§4) Raw LC-MS/MS data was exported to, and analysed in, Microsoft Excel for determination of intrinsic clearance. The percentage remaining of a compound was monitored using the peak area of the initial concentration as 100%. Intrinsic clearance and half-life values were calculated using a graph of the natural log of percentage remaining versus the time of reaction in minutes. Half-life (min) and intrinsic clearance (CIint in μL min^−1 10^−6 cells) values were calculated using the gradient of the graph (the elimination rate constant, k) and Equations 1 and 2.

Assay in series [2]: as above
The note with it: cryopreserved hepatocytes, Human hepatocytes, 10 μM, 60 min, read-out: T½. In kind it is in vitro ADME.
Excerpt: as §1, §2, §3, §4

The test system of another series is NRF2. Kind of series: NRF2 activation assay (DiscoverX PathHunter NRF2 translocation kit, U2OS cells). The note with it: Homo sapiens, 6 hours; for Emax: normalised to DMF high control. In kind it is cell-based. Here is the method:
Biological Example 2—NRF2 Activation Assay
Measuring Compound Activation Effects on the Anti-Inflammatory Transcription Factor NRF2 in DiscoverX PathHunter NRF2 Translocation Kit
Potency and efficacy of compounds of formula (I) against the target of interest to activate NRF2 (nuclear factor erythroid 2-related factor 2) were determined using the PathHunter NRF2 translocation kit (DiscoverX). The NRF2 translocation assay was run using an engineered recombinant cell line, utilising enzyme fragment complementation to determine activation of the Keap1-NRF2 protein complex and subsequent translocation of NRF2 into the nucleus. Enzyme activity was quantified using a chemiluminescent substrate consumed following the formation of a functional enzyme upon PK-tagged NRF2 translocation into the nucleus.
Additionally, a defined concentration of DMF was used as the ‘High’ control to normalise test compound activation responses to.
U2OS PathHunter eXpress cells were thawed from frozen prior to plating. Following plating, U2OS cells were incubated for 24 hrs (37° C./5% CO2) in commercial kit provided cell medium.
Following 24 hrs of incubation, plated U2OS cells were directly treated with an appropriate final concentration of compound. […]
Following compound treatment, the U2OS plates were incubated for a further 6 hours (37° C./5% CO2) before detection reagent from the PathHunter NRF2 commercial kit was prepared and added to test plates according to the manufacturer's instructions. Subsequently, the luminescence signal detection was measured in a microplate reader (PHERAstar®, BMG Labtech).
Percentage activation was calculated by normalising the sample data to the high and low controls used within each plate (+/−DMF). Percentage activation/response was then plotted against compound concentration and the 50% activation concentration ([…]) was determined from the plotted concentration-response curve.

Series [3] deals with cryo-preserved hepatocytes. Kind of series: Hepatocyte stability assay, mouse cryopreserved hepatocytes. Conditions: for Clint: Mouse hepatocytes, 10 μM, 60 min. In kind it is in vitro ADME.
Excerpt: as §1, §2, §3, §4

Assay in series [4]: as above
In kind it is in vitro ADME. The note with it: cryopreserved hepatocytes, Mouse hepatocytes, 10 μM, 60 min, read-out: T½.
Excerpt: as §1, §2, §3, §4

Setting [5] is: compared to 4-octyl itaconate, ethyl 2-(2-chlorobenzyl)acrylate and 2-(2-chlorobenzyl)acrylic acid.

As usually defined, the IC50 is the concentration needed to halve the response being measured. Lower therefore signals greater potency. For orientation: Emax means the greatest response seen or fitted, relative to the assay's reference. Broadly, the EC50 is the concentration that produces a half-maximal response. Consider `C=C(Cc1ccccc1Cl)C(=O)O` [2-(2-chlorobenzyl)acrylic acid, reference compound], for which the IC50 with IL-1β (numeric values) is over 100 µM. Besides, the Clint in series [1] is reported as 21 μL min^−1 10^−6 cells; in series [3] (numeric values), 95 μL min^−1 10^−6 cells. Moreover, the half-life at 10 μM in series [2] (numeric values) is 59 min; in series [4] (numeric values), 11 min. This compound also had an Emax with NRF2 (numeric values) of 2%. This compound came in with an EC50 in the series with NRF2 (numeric values) of over 100 µM.

Regarding `C=C(Cc1nc(Cc2ccc(Cl)cc2)no1)C(=O)OCC(=O)O` [Example 3, 2-((2-((3-(4-chlorobenzyl)-1,2,4-oxadiazol-5-yl)methyl)acryloyl)oxy)acetic acid], in the series with IL-1β (class symbols), the IC50 lay within 11 to 20 µM. The “Stability in human hepatocytes compared to comparators” value in series [1] (setting [5]) is “more stable”. For the same compound, the half-life at 10 μM in series [2] (class symbols) was over 100 min. In the series with NRF2 (class symbols), the EC50 lay within 11 to 21 µM and the Emax lay within 135 to 165%. For the same compound, in series [3] (class symbols), the Clint entry is listed as “+++ (For Clint (μL min^−1 10^−6 cells; mouse), +++ means <95)”. Further, the “Stability in mouse hepatocytes compared to comparators” value in series [3] (setting [5]) is on record as “more stable”. Further, in series [4] (class symbols), the half-life at 10 μM was over 11 min.

Turning to `C=C(Cc1ccccc1Cl)C(=O)OCC` [ethyl 2-(2-chlorobenzyl)acrylate, reference compound], the 50% inhibitory concentration (IC50) in the series on IL-1β (numeric values) is over 100 µM. In addition, the Clint in series [1] and in series [3] (numeric values) was over 460 μL min^−1 10^−6 cells throughout. Besides, the half-life at 10 μM in series [2] (numeric values) and in series [4] (numeric values) was under 3 min throughout.
